{"source": "patent US20120101024A1", "about": "“Methods and Compositions for Differentiating Embryonic Stem Cells” (REGENERATIVE RESEARCH FOUNDATION, priority 2010, published 2012)", "molecules": {"B1": {"name": "BMP7: positive control for BMP signaling, high levels of BMP7 (protein, UniProt P18075 293-431, looked up)", "Bone morphogenetic protein 7": "STGSKQRSQNRSKTPKNQEALRMANVAENSSSDQRQACKKHELYVSFRDLGWQDWIIAPEGYAAYYCEGECAFPLNSYMNATNHAIVQTLVHFINPETVPKPCCAPTQLNAISVLYFDDSSNVILKKYRNMVVRACGCH"}, "B2": {"name": "CRP: recombinant C-reactive protein (R&D Systems), a pentraxin protein (protein, UniProt P02741 19-224, looked up)", "C-reactive protein": "QTDMSRKAFVFPKESDTSYVSLKAPLTKPLKAFTVCLHFYTELSSTRGYSIFSYATKRQDNEILIFWSKDIGYSFTVGGSEILFEVPEVTVAPVHICTSWESASGIVEFWVDGKPRVRKSLKKGYTVGAEASIILGQEQDSFGGNFEGSQSLVGDIGNVNMWDFVLSPDEINTIYLGGPFSPNVLNWRALKYEVQGEVFTKPQLWP"}, "B3": {"name": "NPTX1-His: NPTX1 protein with six HIS amino acids on the N-terminus, in conditioned media (protein)", "chain": "HHHHHHQDFGPTRFICTSVPVDADMCAASVAAGGAEELRSSVLQLRETVLQQKETILSQKETIRELTAKLGRCESQSTLDPGAGEARAGGGRKQPGSGKNTMGDLSRTPAAETLSQLGQTLQSLKTRLENLEQYSRLNSSSQTNSLKDLLQSKIDELERQVLSRVNTLEEGKGGPRNDTEERVKIETALTSLHQRISELEKGQKDNRPGDKFQLTFPLRTNYMYAKVKKSLPEMYAFTVCMWLKSSATPGVGTPFSYAVPGQANELVLIEWGNNPMEILINDKVAKLPFVINDGKWHHICVTWTTRDGVWEAYQDGTQGGSGENLAPYHPIKPQGVLVLGQEQDTLGGGFDATQAFVGELAHFNIWDRKLTPGEVYNLATCSTKALSGNVIAWAESHIEIYGGATKWTFEACRQIN"}}, "key": {"hESCs [1]": {"test_system": "hESCs", "experiment": "Dual SMAD protocol with substituted factors, PAX6 and SMAD1 at day 7 (BMP signaling)", "type": "cell-based, human", "details": "after 7 days of differentiation", "experimental": "(§1) Feeder free neural induction was carried out as previously described (Chambers et al., supra). Briefly, hESC cultures (WA-09 cells) were disaggregated using Accutase (Innovative Cell Technologies, Inc., San Diego, Calif.) for 20 minutes, washed using hESC media and pre-plated on gelatin for 1 hour at 37° C. in the presence of ROCK inhibitor (Sigma, Carlsbad, Calif.) to remove MEFs. The nonadherent hESCs were washed and plated at a density of 20,000 cells/cm^2 on BD Matrigel™ matrix (BD Biosciences, San Diego, Calif.) coated dishes in MEF conditioned hESCs media (CM) spiked with 10 ng/mL of FGF-2 and ROCK-inhibitor (Sigma). The ROCK inhibitor was withdrawn, and hESCs were allowed to expand in CM for 3 days or until they were nearly confluent. The initial differentiation media conditions included knock out serum replacement (KSR) media with […] TGF-β inhibitor (SB431542, Tocris) and 500 ng/mL of Noggin (R&D Systems). Upon day 5 of differentiation, increasing amounts of N2 media (Fasano et al., 2010, supra) (25%, 50%, 75%) was added to the KSR media every two days while maintaining 500 ng/mL of Noggin and TGF-β inhibitor.\n(§2) Antibodies used for performing immunocytochemistry, methods for which are described in Fasano et al., 2007, and 2010, supra, were obtained commercially as follows: PAX6 (Developmental Studies Hybridoma Bank (Iowa City, Iowa)), SOX2 (Santa Cruz Biotechnology (SCBT) (Santa Cruz, Calif.)), Nestin (Chemicon (Temecula, Calif.)), Nanog (SCBT), OCT-4 (SCBT), SMAD3 and SMAD1 (Cell Signaling Technology, Inc., Danvers, Mass.), FOXG1 (NeuraCell, Rensselaer, N.Y.), SSEA-4, SSEA-3, SSEA-1 (BD Pharmingen (San Diego, Calif.)). Alexa secondary antibodies were purchased from Invitrogen.\nThe directed neural differentiation paradigm used in this study employed the use of both a TGF-beta blocker (SB431542) and Noggin, a BMP blocker, as it has been shown that blocking only TGF-beta is not sufficient to drive neural commitment. While CRIPTO works to enhance NODAL signaling, it has been shown that NODAL itself can bind up BMPs and thus lower BMP signaling. Because NPTX1 depletes available CRIPTO in the extracelluar space and cell surface, it seemed plausible that the resulting excess Nodal could dampen BMP signaling. To test whether NPTX1 expression can reduce BMP signaling, the dual SMAD protocol was employed to generate neural cells (addition of Noggin and TGF-beta inhibitor SB431542).\nIn one condition, Noggin was substituted with a CRIPTO blocking antibody to see if CRIPTO loss could result in robust neural differentiation. As a positive control for BMP signaling, another group was treated with high levels of BMP7. After 7 days of differentiation, neural marker expression and SMAD1 levels were determined."}, "hESCs (WA-09) [2]": {"test_system": "hESCs (WA-09)", "experiment": "Neural induction of hESCs (dual SMAD inhibition protocol), marker expression by qRT-PCR / immunostaining", "type": "cell-based, human", "details": "for expression of the neural genes SOX1 and PAX6 (mRNA) compared to control: control empty vector", "experimental": "as §1\n(§3) Total RNA was extracted using an RNeasy kit (Qiagen). For each sample, 1 μg of total RNA was treated for DNA contamination and reverse transcribed using Quantitect first strand kit (Qiagen). Amplified material was detected using Taqman probes and PCR mix (ABI) on a Mastercycler RealPlex2 (Eppendorf). All results were normalized to a HPRT control and were from 3 technical replicates of 3 independent biological samples at each data point.\nCells were fixed using 4% paraformaldehyde for 15 minutes, washed with PBS, permeabilized using 0.3% Triton X in PBS, and blocked using 10% normal goat serum. Primary antibody used for microscopy was PAX6 (DSHB).\nhESCs (WA-09; passages 35) were dissociated and plated on Matrigel with the ROCK inhibitor as single cells. 24 hrs post plating the ESCs were transduced with either control (empty vector), NPTX1 shRNA, or NPTX10RF containing vectors. One (1) week later, GFP-expressing colonies were manually picked and plated on MEFs. Cells were then expanded, tested for mycoplasma.\nas §2"}, "NPTX1": {"test_system": "NPTX1", "experiment": "NPTX1 knock down by lentiviral shRNA in hESCs, message level", "type": "cell-based, human", "details": "day 3 of neural differentiation", "experimental": "as §1, §3\nNPTX1 open reading frame (ORF) was generated by PCR. This fragment was cloned into the BamH1 and NotI sites of the lentiviral vector, pCDH-EF1-MCS-IRES GFP(SBI Biosciences). […] Viral titers were measured by serial dilution on NIH 3T3 cells (ATCC Deposit No. CRL-1658) followed by flow cytometric analysis after 72 hours. […]"}, "hESCs (WA-09) [3]": {"test_system": "hESCs (WA-09)", "experiment": "Neurosphere assay on cells isolated at day 7 of differentiation", "type": "cell-based, human", "source_text": "To assess the neural character of the cells generated, the resulting cells were isolated at day 7 of differentiation and subjected to a neurosphere assay. […] In control conditions, the neural genes PAX6 and SOX1 started to appear around day 4 (FIGS. 4B and 4C, respectively)."}, "hESCs [4]": {"test_system": "hESCs", "experiment": "Recombinant CRP added to hESCs in neural differentiation conditions, mRNA at day 7", "type": "cell-based, human", "details": "2 μg/ml, administered on days 0, 3 and 5; 7 days", "experimental": "as §3\nC-Reactive Protein (CRP) is a pentraxin protein that is found in the blood, and levels of which rise in response to stress and/or inflammation. […] It was also reported that, when CRP levels went over a particular threshold at 4-weeks of gestation, the time at which nervous system development occurs, an increased rate of miscarriage was identified. In the present Example, it was thus tested whether another member of the pentraxin protein family, in addition to NPTX1 might play an important role in neural differentiation. Recombinant CRP(R&D Systems, 2 μg/ml) or a vehicle control was added to hESCs cultured in conditions that would allow for neural development to proceed normally in the dish. […] Such acceleration of human development could be a cue for miscarriage and/or neural birth defects in fetuses exposed to high levels of CRP during this critical time of gestation."}, "CRIPTO": {"biological_target": "T1, CRIPTO (Homo sapiens, UniProt P13385)", "T1 construct": "endogenous in cells; host or cells: hESCs (WA-09), membrane fraction of lysed cells", "T1 sequence (P13385 31-150)": "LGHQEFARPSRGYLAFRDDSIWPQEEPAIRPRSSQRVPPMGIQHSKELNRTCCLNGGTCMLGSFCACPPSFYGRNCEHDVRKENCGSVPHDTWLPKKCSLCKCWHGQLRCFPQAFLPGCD", "experiment": "Co-immunoprecipitation of CRIPTO with NPTX1-His from membrane fraction of hESCs", "type": "binding", "details": "conditioned media applied to hESCs for 1 hour"}, "[5]": {"details": "day 7 of neural differentiation"}}, "data": [{"molecule": "NC(=O)c1ccc(-c2nc(-c3ccc4c(c3)OCO4)c(-c3ccccn3)[nH]2)cc1", "note": "[SB431542, reference compound]", "values": [{"measurement": "PAX6 expression", "setting": "hESCs [1]", "value": "few PAX6 cells"}, {"measurement": "pSMAD1 / SMAD1 levels", "setting": "hESCs [1]", "value": "high pSMAD1 levels"}]}, {"molecule": "shRNA3: lentiviral NPTX1 shRNA, GAG AAA GGT CAG AAA GAC A (SEQ ID NO: 44) (GAGAAAGGTCAGAAAGACA)", "values": [{"measurement": "expression of the neural genes SOX1 and PAX6 (mRNA) compared to control", "setting": "hESCs (WA-09) [2]; [5]", "value": "significantly reduced levels"}, {"measurement": "expression of early neuroectodermal markers GBX2 and SOX2 (qRT-PCR)", "setting": "hESCs (WA-09) [2]; days 0-7, days 5 and 7 statistically significant", "value": "drastic reduction"}, {"measurement": "knock down of NPTX1 at the message level", "setting": "NPTX1", "value": "successfully knocked down NPTX1"}]}, {"molecule": "shRNA1: lentiviral NPTX1 shRNA, AGT AAA GAG TGG AGA AAG A (SEQ ID NO: 42); did not knock down, used as negative control (AGTAAAGAGTGGAGAAAGA)", "values": [{"measurement": "expression of the neural genes SOX1 and PAX6 (mRNA) compared to control", "setting": "hESCs (WA-09) [2]; [5]", "value": "no effect"}, {"measurement": "knock down of NPTX1 at the message level", "setting": "NPTX1", "value": "did not knock down NPTX1"}]}, {"molecule": "shRNA2: lentiviral NPTX1 shRNA, ACG TGT AGG TTG AGA ACA A (SEQ ID NO: 43) (ACGTGTAGGTTGAGAACAA)", "values": [{"measurement": "SMAD2 and SMAD3 gene expression (RT-PCR)", "setting": "hESCs (WA-09) [2]; NPTX1 knockdown hESCs", "value": "elevated gene expression"}, {"measurement": "NANOG and OCT4 levels compared to control", "setting": "hESCs (WA-09) [2]; day 7 of differentiation", "value": "elevated levels"}, {"measurement": "CRIPTO expression compared to control-treated cells", "setting": "hESCs (WA-09) [2]; [5]", "value": 20, "unit": "fold"}, {"measurement": "expression of the neural genes SOX1 and PAX6 (mRNA) compared to control", "setting": "hESCs (WA-09) [2]; [5]", "value": "significantly reduced levels"}, {"measurement": "gene expression of PAX6 and SOX1 along the time course compared to control", "setting": "hESCs (WA-09) [2]; time course of neural differentiation", "value": "much delayed and at much lower levels"}, {"measurement": "number of neurospheres compared to control", "setting": "hESCs (WA-09) [3]", "value": "significant reduction"}, {"measurement": "knock down of NPTX1 at the message level", "setting": "NPTX1", "value": "successfully knocked down NPTX1"}]}, {"molecule": "B1", "values": [{"measurement": "PAX6 expression", "setting": "hESCs [1]", "value": "few PAX6 cells"}, {"measurement": "pSMAD1 / SMAD1 levels", "setting": "hESCs [1]", "value": "high pSMAD1 levels"}]}, {"molecule": "B2", "values": [{"measurement": "NPTX1 expression", "setting": "hESCs [4]", "value": "increase"}, {"measurement": "neural marker PAX6 compared to the control", "setting": "hESCs [4]", "value": "striking up-regulation"}]}, {"molecule": "B3", "values": [{"measurement": "co-immunoprecipitation with CRIPTO", "setting": "CRIPTO", "value": "coimmunoprecipitate"}]}]}
